The values that follow come from US8309570B2, “Treatment of central neuropathic pain” (Analgesic Neuropharmaceuticals, LLC, priority 2001, dated 2012).

Each structure is given as a SMILES string. “Also recorded” adds a separate entry of the source. Where a name gives a salt, the structure may show the parent alone.

The subject of data set [1] is SCI pain. The note with it: chronic oral agents; cited from earlier work.
The nature of data set [2]: Crossover trial: adverse effects. In kind it is in vivo, human. The settings on record: for confusion, proportion of patients / dizziness, proportion of patients / euphoria, proportion of patients / fatigue, proportion of patients / somnolence, proportion of patients / speech difficulty, proportion of patients / urinary incontinence, proportion of patients / urinary tract infection, proportion of patients: human, in vivo, oral, 5 weeks. As for the experimental part:
Presence and intensity (5-item categorical scale) of adverse effects were assessed continuously using an open question.

A further data set has as its system neuropathic pain. The note with it: cited from earlier work.
Data set [3] relates to central neuropathic pain following traumatic spinal cord injury. Put plainly: Crossover trial: quality of life, Duke Health Profile. In kind it is in vivo, human. The note with it: for Pain domain, compared to placebo: combination p=0.002, dextromethorphan p=0.001, gabapentin p=0.03. The procedure:
(§1) Secondary endpoints were assessed at a clinic visit on the final day of each treatment period, and included: 1) Global Pain Intensity (6-item categorical scale); 2) Global Pain Relief (6-item categorical scale); 3) pain intensity (Gracely Scale) of individual pain descriptors (burning pain; aching pain; tingling pain; cold pain; brief lancinating pain; deep stabbing pain; constricting pain; and touch-evoked pain (allodynia)); 4) areas of evoked pain: a) allodynia and b) pinprick-evoked hyperalgesia; 5) quality of life, assessed using the Duke Health Profile (Parkerson, G R, et al. Medical Care 28:1056-1069(1990)). 6) Patient Satisfaction (5-item categorical scale); 7) patients' assessment of best treatment. Allodynia was mapped by stroking the skin with the distal 5 mm of the corner of a 2×2 gauze sponge at standard pressure, at a rate of 1 cm/sec. Pinprick-evoked hyperalgesia was mapped using a standard safety pin that was pressed against the skin until dimpling was visible. Ambient temperature was maintained at 24 degrees centigrade. All mapping took place within a 30-minute period. The delineated areas of evoked pain were recorded using photographs of 4 views (anterior/posterior/right lateral/left lateral), which were scanned, and the areas of each of the 4 views were summed to determine the composite area.

For data set [4] the test system is unchanged. Put plainly: Randomized, double-blind, double-dummy, 2x2 factorial crossover trial: spontaneous pain, pain relief, patient satisfaction. The data set is classed as in vivo, human. The note with it: for patients choosing treatment as best pain relief / patients choosing treatment as best, balance between analgesia and side effects: at completion of the study, p=0.04; for SCI (spontaneous) pain compared to placebo: chronic oral administration; for overall patient satisfaction at the end of each treatment period, compared to placebo: dextromethorphan p<0.001, gabapentin p<0.01, combination p<0.001; for patients with at least moderate or better pain relief: of 18 patients, end of 5-week treatment. As for the experimental part: Central neuropathic pain following traumatic spinal cord injury (SCI) may be severe and refractory to standard analgesics. Pharmacologic agents that target distinct pathophysiological pain mechanisms theoretically could provide pain relief for these patients. The analgesic efficacy of dextromethorphan and gabapentin in combination, dextromethorphan alone, gabapentin alone, and placebo, in patients with pain following SCI was evaluated in a randomized, double-blind, double-dummy, 2×2 factorial, Latin Square crossover trial, we evaluated the four treatments. Each treatment was titrated over 4 weeks and maintained at the individual's […] until the end of Week 5. Each treatment period was followed by a 1-week washout period or until pain returned to baseline. Primary efficacy measure was mean pain intensity during the 5-week treatment period, measured by the 20-point Gracely pain intensity scale.
Patients with 1) central neuropathic pain secondary to traumatic SCI in persons >18 years of age, 2) moderate pain for at least 50% of the day for at least 3 months, 3) concurrent use of no more than two analgesics at a stable dose (e.g. tricyclic antidepressants, anticonvulsants, nonsteroidal antiinflammatory drugs, or limited use of low-potency short-acting opioids), and 4) 100% compliance in rating their overall pain intensity 5-times daily in a diary for 1 week, were recruited nationwide between July 1997 and April 1999 using written announcements and by physician referrals.
(§2) All patients were followed as outpatients. Patients were randomly assigned to a sequence of the 4 treatments. Each of the 4 treatment periods consisted of 5 weeks. Each treatment period was separated by a 1-week washout period, with the requirement that pain return to baseline level. Dextromethorphan (Endo Inc., Neptune, N.J.; and its externally identical placebo) and gabapentin (Neurontin, Pfizer, Inc., Ann Arbor, Mich.; and its externally identical placebo) were dispensed using a double-dummy design; thus, the dextromethorphan:gabapentin dose-ratio was maintained at 1:5. Subjects started at 120 mg/day of dextromethorphan vs. placebo and 600 mg/day of gabapentin vs. placebo, and titrated according to a fixed schedule until they reached the ceiling doses equivalent to 600 mg/day of dextromethorphan or 3000 mg/day of gabapentin or their maximally tolerated dose (the dose just causing side effects, MTD). The titration regimen and the number of capsules per dose for each treatment were the same in each treatment group, in order to maintain double blinded conditions.
The primary endpoint was mean spontaneous pain intensity averaged weekly, from the start of study drug until the end of Week 5 for each treatment period and overall for the 5 weeks, assessed in a diary in which pain ratings were recorded 5-times daily, and evaluated with the 20-point Gracely pain scale based on 13 words (“faint” to “extremely intense”) (Gracely R H, et al. Pain 5:5-18(1978)).
as §1, with “Ambient temperature was maintained at 24 degrees centigrade. All mapping took place within a 30-minute period. The delineated areas of evoked pain were recorded using photographs of 4 views (anterior/posterior/right lateral/left lateral), which were scanned, and the areas of each of the 4 views were summed to determine the composite area.” left out

Data set [5] in a line: Crossover trial: titration to maximally tolerated dose (MTD). In kind it is in vivo, human. The settings on record: drug alone; for mean dose during Week 5: after 4 weeks of titration to MTD; for maximum daily dose administered: titration to MTD.
Excerpt: as §2

Data set [6] relates to central neuropathic pain following traumatic spinal cord injury. Put plainly: Crossover trial: evoked pain (touch-evoked allodynia, pinprick-evoked hyperalgesia). The data set is classed as in vivo, human. The note with it: for intensity of touch-evoked allodynia, compared to placebo: 14 subjects with allodynia, dextromethorphan p=0.03, gabapentin p=0.01, combination p=0.001; for mean area of allodynia after treatment / mean area of allodynia, reduction from baseline: baseline 362±496 cm^2; for mean area of pinprick hyperalgesia after treatment / mean area of pinprick hyperalgesia, reduction from baseline: baseline 371±523 cm^2; for areas of pinprick hyperalgesia, difference: combination p=0.03, dextromethorphan p=0.02, gabapentin p=0.03. The procedure: as §1

The subject of the next data set is spinally injured rats. The note with it: repeated doses; cited from earlier work.
The test system of data set [7] is SCI pain. The note with it: acute parenteral administration; cited from earlier work.

Take `Cc1cccc(C)c1OCC(C)N` (centres unmarked) [mexiletine]: the “results of randomized controlled trials in SCI pain” value with SCI pain [1] is reported as “negative”.
Turning to `O=c1n(CCCN2CCN(c3cccc(Cl)c3)CC2)nc2ccccn12` [trazodone], the “results of randomized controlled trials in SCI pain” value with SCI pain [1] was “negative”.
Consider `COc1ccc2c(c1)[C@]13CCCC[C@@H]1[C@H](C2)N(C)CC3` [dextromethorphan, dextromethorphan hydrobromide], for which, in data set [2], the “confusion, proportion of patients” value is 33%; the “dizziness, proportion of patients” value was 67%; the “euphoria, proportion of patients” value is recorded as 24%; the “fatigue, proportion of patients” value was determined as 52%. In addition, in data set [2], the “somnolence, proportion of patients” value is recorded as 62%; the “speech difficulty, proportion of patients” value turned out to be 10%; the “urinary incontinence, proportion of patients” value is 5%; the “urinary tract infection, proportion of patients” value is 38%. In data set [2] (p<0.002), the “proportion of patients with cognitive side effects, compared to either placebo or gabapentin” value is recorded as “significantly larger proportion”. Further, the “proportion of patients with other side effects, compared to placebo” value in data set [2] (p=0.01) is given as “significantly larger proportion”. Moreover, in the data set on neuropathic pain (dextromethorphan alone at 81 mg/day), the “analgesic effect in patients with neuropathic pain” value is listed as “inability”. For the same molecule, the “effect in patients with peripheral neuropathic pain” value in the data set on neuropathic pain (human, in vivo) is on record as “marginal effect”. For the same molecule, the “Physical Health measure, compared to placebo” value in data set [3] (combination p=0.001, dextromethorphan p=0.02) was “significantly better than placebo”. Also, the “Pain domain, compared to placebo” value in data set [3] is recorded as “significantly better than placebo”. In [3] (combination p=0.01, dextromethorphan p=0.04), the “General Health measure, compared to placebo” value is listed as “significantly better than placebo”. Moreover, in data set [4], the “patients choosing treatment as best pain relief” value was determined as 33.3%; the “patients choosing treatment as best, balance between analgesia and side effects” value turned out to be 17.5%; the “overall patient satisfaction at the end of each treatment period, compared to placebo” value was “significantly better”; the “patients with at least moderate or better pain relief” value is listed as 50%. The “SCI (spontaneous) pain compared to placebo” value in data set [4] (hydrobromide) is given as “significant reduction; also recorded: superior to placebo”. Besides, the “intensity of burning pain, compared to placebo” value in data set [4] (combination p=0.005, dextromethorphan p=0.001) is reported as “significant relief”. Moreover, the “brief paroxysms of lancinating pain, compared to placebo” value in [4] (combination p=0.03, dextromethorphan p=0.003) was “significant relief”. Further, in data set [5], the “mean dose during Week 5” value was found to be 416 ± 34 mg/day, the mean daily dose came out at 416 mg and the “maximum daily dose administered” value was determined as 470 ± 29 mg/day. Besides, in data set [6], the “intensity of touch-evoked allodynia, compared to placebo” value is “significantly reduced”; the “mean area of allodynia after treatment” value is listed as 183±321 cm^2; the “mean area of allodynia, reduction from baseline” value amounted to 49%; the “mean area of pinprick hyperalgesia after treatment” value stood at 122±287 cm^2. Further, in data set [6], the “mean area of pinprick hyperalgesia, reduction from baseline” value amounted to 67% and the “areas of pinprick hyperalgesia, difference” value was “significant difference”.
`NCC1(CC(=O)O)CCCCC1` [gabapentin]: in [2], the “confusion, proportion of patients” value was 22%; the “dizziness, proportion of patients” value was determined as 22%; the “euphoria, proportion of patients” value is recorded as 6%; the “fatigue, proportion of patients” value is reported as 33%. In addition, in [2], the “somnolence, proportion of patients” value worked out at 33%; the “speech difficulty, proportion of patients” value is 0%; the “urinary incontinence, proportion of patients” value is 11%; the “urinary tract infection, proportion of patients” value came out at 22%. Moreover, the chronic hypersensitivity result with spinally injured rats is given as “alleviated chronic hypersensitivity”. Further, the “Pain domain, compared to placebo” value in data set [3] is “significantly better than placebo”. Also, in data set [4], the “patients choosing treatment as best pain relief” value is reported as 27.8%; the “patients choosing treatment as best, balance between analgesia and side effects” value is 23.5%; the “SCI (spontaneous) pain compared to placebo” value is “significant reduction; also recorded: superior to placebo”; the “overall patient satisfaction at the end of each treatment period, compared to placebo” value was “significantly better”. Further, the “patients with at least moderate or better pain relief” value in data set [4] stood at 39%. Further, in data set [5], the “mean dose during Week 5” value worked out at 2657 ± 155 mg/day, the mean daily dose is listed as 2657 mg and the “maximum daily dose administered” value is 2717 ± 148 mg/day. Besides, in data set [6], the “intensity of touch-evoked allodynia, compared to placebo” value was “significantly reduced”; the “mean area of allodynia after treatment” value turned out to be 106±231 cm^2; the “mean area of allodynia, reduction from baseline” value is 71%; the “mean area of pinprick hyperalgesia after treatment” value is listed as 152±332 cm^2. In data set [6], the “mean area of pinprick hyperalgesia, reduction from baseline” value is 59% and the “areas of pinprick hyperalgesia, difference” value was “significant difference”. For the same molecule, in [6] (combination p=0.05, gabapentin p=0.02), the “area of allodynia, compared to placebo” value is given as “significant difference from placebo”.
As for `CNC1(c2ccccc2Cl)CCCCC1=O` (centres unmarked) [ketamine], the “spontaneous and evoked SCI pain” value in the data set on SCI pain [7] was “reduced both spontaneous and evoked SCI pain”.
